This is an account of results in US20140017330A1, “Activated Nucleoside Analog Conjugates and Methods of Use Thereof” (BOARD OF REGENTS OF THE UNIVERSITY OF NEBRASKA, priority 2011, published 2014).

The test system of data set [1] is gemcitabine-resistant human follicular lymphoma RL7/G cells. Kind of data set: MTT cytotoxicity assay, RL7/G. It counts as cell-based. Conditions: 72-hour treatment. The procedure:
(§1) Human breast carcinoma MCF-7, human hepatocellular carcinoma HepG2, and human prostate adenocarcinoma PC-3 cells were obtained from ATCC (Rockville, Md.). These cells were maintained in Dulbecco's Modified Eagle Medium (DMEM) supplemented with 10% fetal bovine serum (FBS), 1% L-glutamine, and 2% penicillin-streptomycin at 37° C. in a humidified atmosphere containing 5% CO2. […] These cells were maintained in DMEM/Nutrient mixture F-12 (DMEM/F12) with similar supplements and serum as above. […] They were grown in the presence of 2 μM gemcitabine. […] Galmarini (UFR Lyon-Sud, Oullins, France). The cells were grown in the presence of 0.5 μM cytarabine (araC). […]
(§2) Cytotoxicity of the polymeric conjugates was analyzed in different cancer cell lines by a standard MTT assay. […] Samples were incubated in full medium for 72 hours at 37° C., and the metabolic activity of each sample was determined by adding 20 μL of a 5 mg/mL of MTT stock solution in sterile PBS buffer to each well. […] Optical absorbance was measured at 560 nm using a model 680 microplate reader (BioRad, Hercules, Calif.) and cytotoxicity was expressed as a percentage of survived cells relative to nontreated control cells. All samples were analyzed by an average of eight measurements (means±SEM).

Data set [2] deals with cytarabine-resistant human leukemic lymphoblast CEM/araC/8 cells. In words: MTT cytotoxicity assay, CEM/araC/8. It counts as cell-based. The following applies: 72-hour treatment. The procedure:
as §1, §2
A general note: Tetrazolium dyes change colour on reduction, which living cells bring about.

For data set [3] the following is noted: comparator from the literature (Mikkola 2004); cited from earlier work.
In data set [4] the test system is human prostate adenocarcinoma PC-3 cells. Kind of data set: MTT cytotoxicity assay, PC-3. Format: cell-based. Conditions: 72-hour treatment. The procedure: as §1, §2
Data set [5] deals with human breast carcinoma MCF-7 cells. In words: MTT cytotoxicity assay, MCF-7. It counts as cell-based. The following applies: MCF7, 72-hour treatment. The procedure: as §1, §2
Data set [6] relates to human hepatocellular carcinoma HepG2 cells. In words: MTT cytotoxicity assay, HepG2. It counts as cell-based. Conditions: 72-hour treatment, read-out: IC50 values, Hep G2. The procedure:
as §1, §2

Data set [7] relates to human breast carcinoma MDA-MB-231 cells. Kind of data set: MTT cytotoxicity assay, MDA-MB-231. It counts as cell-based. Conditions: 72-hour treatment. The procedure:
as §1, §2

`Nc1ccn([C@@H]2O[C@H](CO)[C@@H](O)C2(F)F)c(=O)n1` [Gemcitabine (G), 2,2′-difluorocytidine]: the IC50 in data set [1] turned out to be 19000 µM.
The compound `Nc1ccn([C@@H]2O[C@H](CO)[C@@H](O)[C@@H]2O)c(=O)n1` [Cytarabine (araC), arabinosylcytosine] displayed a half-maximal inhibitory concentration (IC50) in data set [2] of 1230 µM.
For `Nc1ncnc2c1ncn2[C@@H]1O[C@H](COP(=O)(O)OP(=O)(O)OP(=O)(O)OP(=O)(O)OC[C@H]2O[C@@H](n3cnc4c(N)ncnc43)[C@H](O)[C@@H]2O)[C@@H](O)[C@H]1O` [diadenosine-P1,P4-tetraphosphate], in data set [3], the drug release time is recorded as 3 days.
For `O=c1[nH]c(=O)n([C@H]2C[C@H](O)[C@@H](CO)O2)cc1F` [Floxuridine (FdU), 5-fluoro-2′-deoxyuridine], the IC50 in data set [4] was found to be 6.5 µM; in data set [5] it was 12200 µM; in data set [6], 2200 µM; in data set [7], 14.2 µM.

In general, IC50 refers to the concentration needed to halve the response being measured.
